Laboratory results as given in patent publication US20220168427A1 (Ranok Therapeutics (Hangzhou) Co. Ltd., priority 2019, published 2022).
pIC50: −log10 of the molar value.

How the values were obtained:
HSP90α = HSP90α (Homo sapiens, UniProt P07900); assay: HSP90α Binding Fluorescent Polarization (FP) Assay; settings: competition with FITC-geldanamycin; read-out: HSP90 Binding Potency
In short: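 Competitive FP assay in which compound displaces FITC-geldanamycin from recombinant HSP90α (28 μg/ml before addition) in BSA-containing buffer. Compounds in 3-fold series from 40 μM to 2.0 nM (dilution-plate concentrations), tested in duplicate. Readings after 30, 60 and 120 min at 25 °C; background-subtracted mP fitted to four-parameter log[inhibitor]-response curve.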

BRD4 (BD1+BD2) = target: T1, BRD4 (BD1+BD2) (Homo sapiens, UniProt O60885); settings: read-out: BRD4 Binding Potency
T1 construct: 1.8 μg/ml recombinant BRD4 (BD1+BD2 domains) protein

MV4-11 cells = assay: MV4-11 Cell Cytotoxicity Assay; format: cell-based, human; settings: human, MV4-11 cells, CCK-8
Excerpt: % Inhibition=100−(D−B)/(S−B)*100%.
S: The absorbance of the maximum (cells with DMSO)
B: The absorbance of the minimum (medium with DMSO)

Cc1sc2c(c1C)C(c1ccc(Cl)cc1)=N[C@@H](CC(=O)NCC1CCN(C(=O)C3CCN(Cc4ccc(-n5c(O)nnc5-c5cc(C(C)C)c(O)cc5O)cc4)CC3)C1)c1nnc(C)n1-2 (stereo partly drawn) [Compound 45, 2-((S)-4-(4-chlorophenyl)-2,3,9-trimethyl-6H-thieno[3,2-f][1,2,4]triazolo[4,3-a][1,4]diazepin-6-yl)-N-((1-(1-(4-(3-(2,4-dihydroxy-5-isopropylphenyl)-5-hydroxy-4H-1,2,4-triazol-4-yl)benzyl)piperidine-4-carbonyl)pyrrolidin-3-yl)methyl)acetamide, trifluoroacetic acid]
pIC50 (HSP90α): > 7.00
pIC50 (BRD4 (BD1+BD2)): > 7.00
IC50 at 72 h (MV4-11 cells): < 100 nM

CCN(Cc1ccc(OCCCNC(=O)C[C@@H]2N=C(c3ccc(Cl)cc3)c3c(sc(C)c3C)-n3c(C)nnc32)cc1)Cc1ccc(-n2c(C(=O)NCC(F)(F)F)nnc2-c2cc(C(C)C)c(O)cc2O)cc1 [Compound 102, (S)-4-(4-(((4-(3-(2-(4-(4-chlorophenyl)-2,3,9-trimethyl-6H-thieno[3,2-f][1,2,4]triazolo[4,3-a][1,4]diazepin-6-yl)acetamido)propoxy)benzyl)(ethyl)amino)methyl)phenyl)-5-(2,4-dihydroxy-5-isopropylphenyl)-N-(2,2,2-trifluoroethyl)-4H-1,2,4-triazole-3-carboxamide, trifluoroacetic acid]
pIC50 (HSP90α): < 6.00
pIC50 (BRD4 (BD1+BD2)): < 6.00
IC50 at 72 h (MV4-11 cells): < 100 nM

CCN(CC)CCNC(=O)c1nnc(-c2cc(C(C)C)c(O)cc2O)n1-c1ccc(CN2CCN(CC3CCN(C(=O)C[C@@H]4N=C(c5ccc(Cl)cc5)c5c(sc(C)c5C)-n5c(C)nnc54)CC3)CC2)cc1 [Compound 118, (S)-4-(4-((4-((1-(2-(4-(4-chlorophenyl)-2,3,9-trimethyl-6H-thieno[3,2-f][1,2,4]triazolo[4,3-a][1,4]diazepin-6-yl)acetyl)piperidin-4-yl)methyl)piperazin-1-yl)methyl)phenyl)-N-(2-(diethylamino)ethyl)-5-(2,4-dihydroxy-5-isopropylphenyl)-4H-1,2,4-triazole-3-carboxamide, trifluoroacetic acid]
pIC50 (HSP90α): 6.00 to 7.00
pIC50 (BRD4 (BD1+BD2)): > 7.00
IC50 at 72 h (MV4-11 cells): < 100 nM

CCNC(=O)c1nnc(-c2cc(CC)c(O)cc2O)n1-c1ccc(CC2CCN(CC3CCN(C(=O)C[C@@H]4N=C(c5ccc(Cl)cc5)c5c(sc(C)c5C)-n5c(C)nnc54)CC3)CC2)cc1 [Compound 87, (S)-4-(4-((1-((1-(2-(4-(4-chlorophenyl)-2,3,9-trimethyl-6H-thieno[3,2-f][1,2,4]triazolo[4,3-a][1,4]diazepin-6-yl)acetyl)piperidin-4-yl)methyl)piperidin-4-yl)methyl)phenyl)-N-ethyl-5-(5-ethyl-2,4-dihydroxyphenyl)-1H-1,2,414-triazole-3-carboxamide, trifluoroacetic acid]
pIC50 (HSP90α): 6.00 to 7.00
pIC50 (BRD4 (BD1+BD2)): 6.00 to 7.00
IC50 at 72 h (MV4-11 cells): < 100 nM

Cc1sc2c(c1C)C(c1ccc(Cl)cc1)=N[C@@H](CC(=O)NCCOCc1ccc(-n3c(O)nnc3-c3cc(C(C)C)c(O)cc3O)cc1)c1nnc(C)n1-2 [Compound 52, 2-((6S)-4-(4-chlorophenyl)-2,3,9-trimethyl-6H-thieno[3,2-f][1,2,4]triazolo[4,3-a][1,4]diazepin-6-yl)-N-(2-((4-(3-(2,4-dihydroxy-5-isopropylphenyl)-5-hydroxy-4H-1,2,4-triazol-4-yl)benzyl)oxy)ethyl)acetamide]
pIC50 (HSP90α): > 7.00
pIC50 (BRD4 (BD1+BD2)): < 6.00
IC50 at 72 h (MV4-11 cells): 100 to 1000 nM

Cc1sc2c(c1C)C(c1ccc(Cl)cc1)=N[C@@H](CC(=O)NCC(=O)NCCOCCOc1ccc(-n3c(O)nnc3-c3cc(C(C)C)c(O)cc3O)cc1)c1nnc(C)n1-2 [Compound 55, (S)-2-(4-(4-chlorophenyl)-2,3,9-trimethyl-6H-thieno[3,2-f][1,2,4]triazolo[4,3-a][1,4]diazepin-6-yl)-N-(2-((2-(2-(4-(3-(2,4-dihydroxy-5-isopropylphenyl)-5-hydroxy-4H-1,2,4-triazol-4-yl)phenoxy)ethoxy)ethyl)amino)-2-oxoethyl)acetamide]
pIC50 (HSP90α): 6.00 to 7.00
pIC50 (BRD4 (BD1+BD2)): 6.00 to 7.00
IC50 at 72 h (MV4-11 cells): 100 to 1000 nM

Cc1sc2c(c1C)C(c1ccc(Cl)cc1)=N[C@@H](CC(=O)N1CCN(c3ccc(-n4c(O)nnc4-c4cc(C(C)C)c(O)cc4O)cc3)CC1)c1nnc(C)n1-2 [Compound 79, (S)-2-(4-(4-chlorophenyl)-2,3,9-trimethyl-6H-thieno[3,2-f][1,2,4]triazolo[4,3-a][1,4]diazepin-6-yl)-1-(4-(4-(3-(2,4-dihydroxy-5-isopropylphenyl)-5-hydroxy-4H-1,2,4-triazol-4-yl)phenyl)piperazin-1-yl)ethan-1-one]
pIC50 (HSP90α): 6.00 to 7.00
pIC50 (BRD4 (BD1+BD2)): 6.00 to 7.00
IC50 at 72 h (MV4-11 cells): < 100 nM

CCc1cc(-c2nnc(O)n2-c2ccc(CNC(=O)C[C@@H]3N=C(c4ccc(Cl)cc4)c4c(sc(C)c4C)-n4c(C)nnc43)cc2)c(O)cc1O [Compound 56, 2-((6S)-4-(4-chlorophenyl)-2,3,9-trimethyl-6H-thieno[3,2-f][1,2,4]triazolo[4,3-a][1,4]diazepin-6-yl)-N-(4-(3-(5-ethyl-2,4-dihydroxyphenyl)-5-hydroxy-4H-1,2,4-triazol-4-yl)benzyl)acetamide]
pIC50 (HSP90α): 6.00 to 7.00
pIC50 (BRD4 (BD1+BD2)): 6.00 to 7.00
IC50 at 72 h (MV4-11 cells): 100 to 1000 nM

COc1cccc(-c2cc(C(=O)Nc3ccc(-c4ccc(OC5CCN(CC[C@@H]6N=C(c7ccc(Cl)cc7)c7c(sc(C)c7C)-n7c(C)nnc76)CC5)cc4O)cc3)ccc2OC)c1 [Compound 132]
pIC50 (HSP90α): < 6.00
pIC50 (BRD4 (BD1+BD2)): < 6.00
IC50 at 72 h (MV4-11 cells): > 1000 nM

Cc1sc2c(c1C)C(c1ccc(Cl)cc1)=N[C@@H](CC(=O)NCCOCCN1CCN(Cc3ccc(-n4c(O)nnc4-c4cc(C(C)C)c(O)cc4O)cc3)CC1)c1nnc(C)n1-2 [Compound 49, 2-((6S)-4-(4-chlorophenyl)-2,3,9-trimethyl-6H-thieno[3,2-f][1,2,4]triazolo[4,3-a][1,4]diazepin-6-yl)-N-(2-(2-(4-(4-(3-(2,4-dihydroxy-5-isopropylphenyl)-5-hydroxy-4H-1,2,4-triazol-4-yl)benzyl)piperazin-1-yl)ethoxy)ethyl)acetamide, trifluoroacetic acid, trifluoroacetic acid, trifluoroacetic acid, trifluoroacetic …]
pIC50 (HSP90α): > 7.00
pIC50 (BRD4 (BD1+BD2)): 6.00 to 7.00
IC50 at 72 h (MV4-11 cells): < 100 nM

Cc1sc2c(c1C)C(c1ccc(Cl)cc1)=N[C@@H](CC(=O)N1CCC(Cc3ccc(CN(C)Cc4ccc(-n5c(O)nnc5-c5cc(C(C)C)c(O)cc5O)cc4)cc3)CC1)c1nnc(C)n1-2 [Compound 83, (S)-2-(4-(4-chlorophenyl)-2,3,9-trimethyl-6H-thieno[3,2-f][1,2,4]triazolo[4,3-a][1,4]diazepin-6-yl)-1-(4-(4-(((4-(3-(2,4-dihydroxy-5-isopropylphenyl)-5-hydroxy-4H-1,2,4-triazol-4-yl)benzyl)(methyl)amino)methyl)benzyl)piperidin-1-yl)ethan-1-one, trifluoroacetic acid]
pIC50 (HSP90α): 6.00 to 7.00
pIC50 (BRD4 (BD1+BD2)): < 6.00
IC50 at 72 h (MV4-11 cells): < 100 nM

CCc1cc(-c2nnc(C(=O)NCCN3CCCCC3)n2-c2ccc(CN3CCN(CC4CCN(C(=O)C[C@@H]5N=C(c6ccc(Cl)cc6)c6c(sc(C)c6C)-n6c(C)nnc65)CC4)CC3)cc2)c(O)cc1O [Compound 117, (S)-4-(4-((4-((1-(2-(4-(4-chlorophenyl)-2,3,9-trimethyl-6H-thieno[3,2-f][1,2,4]triazolo[4,3-a][1,4]diazepin-6-yl)acetyl)piperidin-4-yl)methyl)piperazin-1-yl)methyl)phenyl)-5-(5-ethyl-2,4-dihydroxyphenyl)-N-(2-(piperidin-1-yl)ethyl)-4H-1,2,4-triazole-3-carboxamide, trifluoroacetic acid]
pIC50 (HSP90α): 6.00 to 7.00
pIC50 (BRD4 (BD1+BD2)): > 7.00
IC50 at 72 h (MV4-11 cells): < 100 nM

Cc1nn(-c2ccc(C(N)=O)c(NCCOCCNC(=O)C[C@@H]3N=C(c4ccc(Cl)cc4)c4c(sc(C)c4C)-n4c(C)nnc43)c2)c2c1C(=O)CC(C)(C)C2 [Compound 20, 2-((2-(2-(2-((6S)-4-(4-chlorophenyl)-2,3,9-trimethyl-6H-thieno[3,2-f][1,2,4]triazolo[4,3-a][1,4]diazepin-6-yl)acetamido)ethoxy)ethyl)amino)-4-(3,6,6-trimethyl-4-oxo-4,5,6,7-tetrahydro-1H-indazol-1-yl)benzamide]
pIC50 (HSP90α): < 6.00
pIC50 (BRD4 (BD1+BD2)): < 6.00
IC50 at 72 h (MV4-11 cells): 100 to 1000 nM

Cc1sc2c(c1C)C(c1ccc(Cl)cc1)=N[C@@H](CC(=O)NCCc1ccc(CN3CCC(Cc4ccc(-n5c(C(=O)NCC(F)(F)F)nnc5-c5cc(C(C)C)c(O)cc5O)cc4)CC3)cc1)c1nnc(C)n1-2 [Compound 95, (S)-4-(4-((1-(4-(2-(2-(4-(4-chlorophenyl)-2,3,9-trimethyl-6H-thieno[3,2-f][1,2,4]triazolo[4,3-a][1,4]diazepin-6-yl)acetamido)ethyl)benzyl)piperidin-4-yl)methyl)phenyl)-5-(2,4-dihydroxy-5-isopropylphenyl)-N-(2,2,2-trifluoroethyl)-4H-1,2,4-triazole-3-carboxamide, trifluoroacetic acid]
pIC50 (HSP90α): 6.00 to 7.00
pIC50 (BRD4 (BD1+BD2)): 6.00 to 7.00
IC50 at 72 h (MV4-11 cells): < 100 nM

Cc1cc(-c2nnc(C(=O)NCCN3CCCCC3)n2-c2ccc(CN3CCN(CC4CCN(C(=O)C[C@@H]5N=C(c6ccc(Cl)cc6)c6c(sc(C)c6C)-n6c(C)nnc65)CC4)CC3)cc2)c(O)cc1O [Compound 124, (S)-4-(4-((4-((1-(2-(4-(4-chlorophenyl)-2,3,9-trimethyl-6H-thieno[3,2-f][1,2,4]triazolo[4,3-a][1,4]diazepin-6-yl)acetyl)piperidin-4-yl)methyl)piperazin-1-yl)methyl)phenyl)-5-(2,4-dihydroxy-5-methylphenyl)-N-(2-(piperidin-1-yl)ethyl)-4H-1,2,4-triazole-3-carboxamide, trifluoroacetic acid]
pIC50 (HSP90α): 6.00 to 7.00
pIC50 (BRD4 (BD1+BD2)): > 7.00
IC50 at 72 h (MV4-11 cells): < 100 nM
